Starred links: 1 amine or outer side, 2 acyl side, 3 side chain; linkers in the order of their positions; H or OH if unused. Positions of bridges follow the written chain, without caps; N, C: chain ends. Non-standard residues stand in square brackets, D forms with d. Residues, ends and D or L forms follow the SMILES beside them. Groups on a side chain read outwards from the residue. *: point of attachment. X78 = N=C(N)NCCc1cn(-c2ccc(C[C@H](N[*:1])C(=O)[*:2])cc2)nn1; Me3N+(CH2)2O(CH2)2O(CH2)2CO = C[N+](C)(C)CCOCCOCCC(=O)*; Trp(7-Me) = Cc1cccc2c(C[C@H](N)C(=O)O)c[nH]c12; Phe(4-CH2NH2) = NCc1ccc(C[C@H](N)C(=O)O)cc1; Pentanoyl(5-guanidino) = NC(N)=NCCCCC(=O)*; X71 = C[N+](C)(C)CC(F)(F)C(F)(F)C(F)(F)C*; γGlu = O=C(O)[C@H](CCC(=O)[*:2])N[*:1]; 2Nal = N[C@@H](Cc1ccc2ccccc2c1)C(=O)O; AEF = NCCOc1ccc(C[C@H](N)C(=O)O)cc1; dNMeY = CN[C@H](Cc1ccc(O)cc1)C(=O)O; 3Pal = N[C@@H](Cc1cccnc1)C(=O)O; Lys(Me) = CNCCCC[C@H](N)C(=O)O; NMeK = CN[C@@H](CCCCN)C(=O)O; Pen = CC(C)(S)[C@H](N)C(=O)O; αMeK = C[C@](N)(CCCCN)C(=O)O; Lauroyl = CCCCCCCCCCCC(=O)*; Thp = NC1(C(=O)O)CCOCC1; X3 = C[N+](C)(C)CCCCC*; AEEA = NCCOCCOCC(=O)O; Sar = CNCC(=O)O

This is an account of results in patent US20260022143A1, “Cyclic Peptide Inhibitors of IL-23” (JANSSEN PHARMACEUTICA NV, priority 2022, published 2026).

The first experiment addresses T1, IL-23R (Homo sapiens, UniProt Q5VWK5).
T1 construct: host or cells: HEK293
T1 sequence (Q5VWK5 24-629): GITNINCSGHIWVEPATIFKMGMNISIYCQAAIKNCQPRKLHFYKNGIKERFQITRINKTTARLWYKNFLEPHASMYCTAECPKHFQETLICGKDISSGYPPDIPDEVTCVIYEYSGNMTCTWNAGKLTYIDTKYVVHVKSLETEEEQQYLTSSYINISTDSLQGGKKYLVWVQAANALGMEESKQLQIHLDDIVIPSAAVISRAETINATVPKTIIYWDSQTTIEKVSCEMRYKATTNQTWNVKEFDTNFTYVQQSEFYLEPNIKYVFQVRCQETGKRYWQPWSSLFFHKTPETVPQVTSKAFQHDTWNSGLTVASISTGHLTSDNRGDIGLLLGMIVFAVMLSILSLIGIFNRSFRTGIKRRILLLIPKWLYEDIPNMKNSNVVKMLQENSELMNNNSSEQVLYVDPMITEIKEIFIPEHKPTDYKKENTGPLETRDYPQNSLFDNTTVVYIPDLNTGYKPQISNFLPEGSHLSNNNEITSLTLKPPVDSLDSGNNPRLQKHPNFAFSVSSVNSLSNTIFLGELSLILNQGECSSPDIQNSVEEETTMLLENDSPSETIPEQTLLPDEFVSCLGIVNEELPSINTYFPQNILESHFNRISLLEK
Nature of the experiment: IL23R Reporter Assay. In kind it is cell-based. The conditions noted are these: HEK293 cells containing IL-23R, IL-12RP1 and STAT-inducible firefly luciferase reporter; 10 ng/mL IL-23 (EC90); 5 h at 37° C.; read-out: IL23R Reporter Assay.
For `CC(=O)N(C)CCCC[C@@H]1NC(=O)[C@H](Cc2c[nH]c3c(C)cccc23)NC(=O)[C@H]([C@@H](C)O)NC(=O)[C@H](CC(=O)N(C)C)NC(=O)[C@@H](NC(=O)CCCCNC(=N)N)C(C)(C)SSC(C)(C)[C@@H](C(=O)N[C@@H](Cc2ccc(OCCCCC[N+](C)(C)C)cc2)C(=O)N[C@@H](Cc2ccc3ccccc3c2)C(=O)NC2(C(=O)N[C@@H](CCCCN(C)C(C)=O)C(=O)N[C@@H](CC(N)=O)C(=O)N[C@@H](Cc3cccnc3)C(=O)N(C)CC(=O)N(C)C)CCOCC2)NC1=O` [compound 403, 4cpgCO-Pen(3)-N(N(Me)2)-T-7MeW-K(NMeAc)-Pen(3)-TMAPF-2Nal-THP-K(NMeAc)-N-3Pya-Sar-CON(Me)2] ({Pentanoyl(5-guanidino)}-[Pen]D(NMe2)T[Trp(7-Me)][Lys(Me)](Ac)[Pen]Y(X3)[2Nal][Thp][Lys(Me)](Ac)N[3Pal][Sar]-NMe2; disulfide 1-6), the IC50 came to 4.5 nM.

Turning to `CC(=O)NCCCC[C@H](NC(=O)[C@](C)(CCCCN)NC(=O)[C@H](Cc1ccc2ccccc2c1)NC(=O)[C@H](Cc1ccc(OCCN)cc1)NC(=O)[C@H]1NC(=O)[C@H](Cc2ccc(CNC(C)=O)cc2)NC(=O)[C@H](Cc2c[nH]c3c(C)cccc23)NC(=O)[C@H]([C@@H](C)O)NC(=O)[C@H](CC(N)=O)NC(=O)[C@@H](NC(C)=O)C(C)(C)SSC1(C)C)C(=O)N[C@@H](CC(N)=O)C(=O)N[C@H](CCCCN)C(=O)N(C)[C@H](Cc1ccc(O)cc1)C(N)=O` [compound 23, MeCO-Pen(3)-N-T-7MeW-Paf(Ac)-Pen(3)-AEF-2Nal-aMeK-K(Ac)-N-k-NMeDTyr-CONH2] (Ac-[Pen]NT[Trp(7-Me)][Phe(4-CH2NH2)](Ac)[Pen][AEF][2Nal][αMeK]K(Ac)N[dK][dNMeY]-NH2; disulfide 1-6), the IC50 is 150 nM.

Consider `CCCCCCCCCCCC(=O)N[C@@H](CCC(=O)NCCOCCOCC(=O)NCCOCCOCC(=O)NCCCC[C@@H](C(N)=O)N(C)C(=O)[C@H](Cc1cccnc1)NC(=O)[C@H](CC(N)=O)NC(=O)[C@H](CCCCN(C)C(C)=O)NC(=O)C1(NC(=O)[C@H](Cc2ccc3ccccc3c2)NC(=O)[C@H](Cc2ccc(OCCCCC[N+](C)(C)C)cc2)NC(=O)[C@H]2NC(=O)[C@H](CCCCN(C)C(C)=O)NC(=O)[C@H](Cc3c[nH]c4c(C)cccc34)NC(=O)[C@H]([C@@H](C)O)NC(=O)[C@H](CC(=O)N(C)C)NC(=O)[C@@H](NC(=O)CCOCCOCC[N+](C)(C)C)C(C)(C)SSC2(C)C)CCOCC1)C(=O)O` [compound 314, cPEG3aCO-Pen(3)-N(N(Me)2)-T-7MeW-K(NMeAC)-Pen(3)-TMAPF-2Nal-THP-K(NMeaC)-N-3Pya-NMeK(PEG2PEG2gEC12)-CONH2] ({Me3N+(CH2)2O(CH2)2O(CH2)2CO}-[Pen]D(NMe2)T[Trp(7-Me)][Lys(Me)](Ac)[Pen]Y(X3)[2Nal][Thp][Lys(Me)](Ac)N[3Pal][NMeK]([AEEA-AEEA-γGlu-Lauroyl])-NH2; disulfide 1-6), for which the IC50 was 7 nM.

Turning to `CC(=O)NCCCC[C@@H]1NC(=O)[C@H](Cc2c[nH]c3c(C)cccc23)NC(=O)[C@H]([C@@H](C)O)NC(=O)[C@H](CC(N)=O)NC(=O)[C@@H](NC(=O)CCOCCOCC[N+](C)(C)C)C(C)(C)SSC(C)(C)[C@@H](C(=O)N[C@@H](Cc2ccc(-n3cc(CCNC(=N)N)nn3)cc2)C(=O)N[C@@H](Cc2ccc3ccccc3c2)C(=O)NC2(C(=O)N[C@@H](CCCCNC(C)=O)C(=O)N[C@@H](CC(N)=O)C(=O)N[C@@H](Cc3cccnc3)C(=O)N(C)CC(N)=O)CCOCC2)NC1=O` [compound 521, cPEG3aCO-Pen(3)-N-T-7MeW-K(Ac)-Pen(3)-F(4TzlG2)-2Nal-THP-K(Ac)-N-3Pya-Sar-CONH2] ({Me3N+(CH2)2O(CH2)2O(CH2)2CO}-[Pen]NT[Trp(7-Me)]K(Ac)[Pen][X78][2Nal][Thp]K(Ac)N[3Pal][Sar]-NH2; disulfide 1-6), the IC50 came out at 1.4 nM.

`CC(=O)N(C)CCCC[C@@H]1NC(=O)[C@H](Cc2c[nH]c3c(C)cccc23)NC(=O)[C@H]([C@@H](C)O)NC(=O)[C@H](CC(=O)N(C)C)NC(=O)[C@@H](NC(=O)CCOCCOCC[N+](C)(C)C)C(C)(C)SSC(C)(C)[C@@H](C(=O)N[C@@H](Cn2cc(CC[N+](C)(C)C)nn2)C(=O)N[C@@H](Cc2ccc3ccccc3c2)C(=O)NC2(C(=O)N[C@@H](CCCCN(C)C(C)=O)C(=O)N[C@@H](CC(N)=O)C(=O)N[C@@H](Cc3cccnc3)C(=O)N(C)CC(=O)N(C)C)CCOCC2)NC1=O` [compound 287, cPEG3aCO-Pen(3)-N(N(Me)2)-T-7MeW-K(NMeAc)-Pen(3)-Tzl(Ch)-2Nal-THP-K(NMeAc)-N-3Pya-Sar-CON(Me)2]: the IC50 worked out at 24 nM.

Take `CCCCCCCCCCCC(=O)N[C@@H](CCC(=O)NCCOCCOCC(=O)NCCOCCOCC(=O)NCCCC[C@H](NC(=O)C1(NC(=O)[C@H](Cc2ccc3ccccc3c2)NC(=O)[C@H](Cc2ccc(OCCCCC[N+](C)(C)C)cc2)NC(=O)[C@H]2NC(=O)[C@H](CCCCNC(C)=O)NC(=O)[C@H](Cc3c[nH]c4c(C)cccc34)NC(=O)[C@H]([C@@H](C)O)NC(=O)[C@H](CC(=O)N(C)C)NC(=O)[C@@H](NC(=O)CCOCCOCC[N+](C)(C)C)C(C)(C)SSC2(C)C)CCOCC1)C(=O)N[C@@H](CC(N)=O)C(=O)N[C@@H](Cc1cccnc1)C(=O)N(C)[C@@H](CCCCNC(=O)COCCOCCNC(=O)COCCOCCNC(=O)CC[C@H](NC(=O)CCCCCCCCCCC)C(=O)O)C(N)=O)C(=O)O` [compound 353, cPEG3aCO-Pen(3)-N(N(Me)2)-T-7MeW-K(Ac)-Pen(3)-TMAPF-2Nal-THP-K(PEG2PEG2gEC12)-N-3Pya-NMeK(PEG2PEG2gEC12)-CONH2] ({Me3N+(CH2)2O(CH2)2O(CH2)2CO}-[Pen]D(NMe2)T[Trp(7-Me)]K(Ac)[Pen]Y(X3)[2Nal][Thp]K([AEEA-AEEA-γGlu-Lauroyl])N[3Pal][NMeK]([AEEA-AEEA-γGlu-Lauroyl])-NH2; disulfide 1-6): the IC50 was determined as 140 nM.

For the compound `CC(=O)NCCCC[C@@H]1NC(=O)[C@H](Cc2c[nH]c3c(C)cccc23)NC(=O)[C@H]([C@@H](C)O)NC(=O)[C@H](CC(N)=O)NC(=O)[C@@H](NC(=O)CCOCCOCC[N+](C)(C)C)C(C)(C)SSC(C)(C)[C@@H](C(=O)N[C@@H](Cc2ccc(OC(F)F)cc2)C(=O)N[C@@H](Cc2ccc3ccccc3c2)C(=O)NC2(C(=O)N[C@@H](CCCCNC(C)=O)C(=O)N[C@@H](CC(N)=O)C(=O)N[C@@H](Cc3cccnc3)C(=O)N(C)CC(N)=O)CCOCC2)NC1=O` [compound 551, cPEG3aCO-Pen(3)-N-T-7MeW-K(Ac)-Pen(3)-YCF2H-2Nal-THP-K(Ac-N-3Pya-Sar-CONH2], the IC50 was 5.5 nM.

The experiment is the same for the next values; noted with them: IL23R Reporter Assay (micromolar), HEK293 cells containing IL-23R, IL-12RP1 and STAT-inducible firefly luciferase reporter; 10 ng/mL IL-23 (EC90); 5 h at 37° C.
`CC(=O)N(C)CCCC[C@@H]1NC(=O)[C@H](Cc2c[nH]c3c(C)cccc23)NC(=O)[C@H]([C@@H](C)O)NC(=O)[C@H](CC(=O)N(C)C)NC(=O)[C@@H](NC(=O)CCOCCOCC[N+](C)(C)C)C(C)(C)SSC(C)(C)[C@@H](C(=O)N[C@@H](Cc2ccc(OCC(F)(F)C(F)(F)C(F)(F)C[N+](C)(C)C)cc2)C(=O)N[C@@H](Cc2ccc3ccccc3c2)C(=O)NC2(C(=O)N[C@@H](CCCCN(C)C(C)=O)C(=O)N[C@@H](CC(N)=O)C(=O)N[C@@H](Cc3cccnc3)C(=O)N(C)CC(=O)N(C)C)CCOCC2)NC1=O` [compound 338, cPEG3aCO-Pen(3)-N(N(Me)2)-T-7MeW-K(NMeAc)-Pen(3)-hFTMAPF-2Nal-THP-K(NMeAc)-N-3Pya-Sar-CON(Me)2] ({Me3N+(CH2)2O(CH2)2O(CH2)2CO}-[Pen]D(NMe2)T[Trp(7-Me)][Lys(Me)](Ac)[Pen]Y(X71)[2Nal][Thp][Lys(Me)](Ac)N[3Pal][Sar]-NMe2; disulfide 1-6) yielded an IC50 of 1.6 nM.
